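A five-concentration, 48-hour dose response in 96-well plates underlies each endpoint, interpolated linearly between surrounding concentrations. Here, GI50 denotes the concentration required for 50% inhibition of growth. TGI: total growth inhibition.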
How the values were obtained:
Assay in all cases: NCI anticancer screen, dose series, 48 h
[1] = test system: 786-0 renal
[2] = test system: ACHN renal
[3] = test system: HT29 colon
[4] = test system: M14 melanoma
[5] = test system: MCF7 breast
[6] = test system: OVCAR-3 ovarian
[7] = test system: TK-10 renal
[8] = test system: U251 CNS
[9] = test system: UACC-62 melanoma
[10] = test system: MALME-3M melanoma

Structure (SMILES) | TGI [1] [µM] | TGI [2] [µM] | TGI [3] [µM] | TGI [4] [µM] | TGI [5] [µM] | TGI [6] [µM] | TGI [7] [µM] | TGI [8] [µM] | TGI [9] [µM] | TGI [10] [µM] | GI50 [2] [µM] | GI50 [4] [µM] | GI50 [7] [µM] | GI50 [3] [µM] | GI50 [10] [µM] | GI50 [5] [µM] | GI50 [6] [µM] | GI50 [8] [µM] | GI50 [9] [µM]
CSc1ncc2c(n1)-c1ccccc1OC2N1CCCC1 (stereo unspecified) | > 100 | > 100 | > 100 | > 100 | > 100 | > 100 | > 100 | > 100 | > 100 |  |  |  |  |  |  |  |  |  | 
CCOC(=O)C(Cc1ccccc1)(Cc1ccc(O)cn1)NC(=O)c1ccccc1 (stereo unspecified) | 82.6 | > 100 | 81 | 40.5 | 51.5 | 47.8 | > 100 | 57.7 | 46 | 48.8 |  |  |  |  |  |  |  |  | 
CCOC(=O)c1sc2c(c1OC(=O)c1ccccc1)c(=O)n(-c1ccccc1)c(=S)n2-c1ccccc1 | 29.4 | > 100 | 38.1 | 45.2 | > 100 | 95.6 | > 100 | 46.5 | 52.3 | 54.5 |  |  |  |  |  |  |  |  | 
N#CC1=CNc2sccc2S1(=O)=O | > 100 | > 100 | > 100 | > 100 | > 100 | > 100 | > 100 | > 100 | > 100 | > 100 |  |  |  |  |  |  |  |  | 
COC(=O)C1(C(=O)OC)N=C(C)OC1C(C)C (stereo unspecified) | > 100 | > 100 |  | > 100 | > 100 | > 100 | > 100 | > 100 |  |  |  |  |  |  |  |  |  |  | 
COC(=O)[C@@H]1N2C(=S)N(c3ccccc3)C(=O)[C@H]2SC1(C)C | > 100 | > 100 | > 100 | > 100 | > 100 | > 100 | > 100 | > 100 | > 100 |  |  |  |  |  |  |  |  |  | 
O=[As](O)(O)c1cc(N=Nc2ccc(-c3ccc(N=Nc4cc([As](=O)(O)O)c(O)cc4O)cc3)cc2)c(O)cc1O | > 100 | > 100 | > 100 | > 100 |  | > 78.4 | > 100 | > 100 | > 100 | > 100 |  |  |  |  |  |  |  |  | 
CN1C2CC(=O)CC1[C@@H]1OC(c3ccccc3)O[C@H]21 (stereo partly specified) | > 100 |  | > 100 | > 100 | > 100 | > 100 | > 100 | > 100 | > 100 | > 100 |  |  |  |  |  |  |  |  | 
OCCN=C1Nc2ccc(Cl)cc2C(=S)N2CSC[C@@H]12 | > 100 | > 100 | > 100 | > 100 | > 100 | > 100 |  | > 100 | > 100 | > 100 |  |  |  |  |  |  |  |  | 
CCOC(=O)c1cn(-c2ccc(Cl)cc2)c(=O)n2c1nc1ccccc12 | > 100 | > 100 | > 100 | > 100 | > 100 | > 100 |  | > 100 | > 100 |  |  |  |  |  |  |  |  |  | 
O=C(N=Nc1ccccc1Br)NNc1ccccc1Br | > 100 | > 100 | > 100 | > 100 |  | > 100 | > 100 | > 100 | > 100 | > 100 |  |  |  |  |  |  |  |  | 
CC[N+](CC)=c1ccc2nc3c(cc(N)c4ccccc43)oc-2c1 |  | 1.72 |  | 0.61 |  |  | 1.14 |  |  |  | 0.412 | 0.216 | 0.489 |  |  |  |  |  | 
COc1cc2ccnc3c2c(c1O)N(C)C=C3 | 21.8 | 27.6 |  | 37 | > 91.6 | 17.8 | 32.9 | > 100 | 25.6 | 21.7 |  |  |  |  |  |  |  |  | 
C=C1C[C@]23C[C@@]1(O)CC[C@H]2[C@@]12C=C[C@H](O)[C@@](C)(C(=O)O1)[C@H]2[C@@H]3C(=O)O | > 100 |  | > 100 | > 100 |  | > 100 | > 100 | > 100 | > 100 | > 100 |  |  |  |  |  |  |  |  | 
CSc1nncc(-c2cc3c(c(SC)n2)CCC3)n1 | > 100 | > 100 | > 100 | > 100 |  | > 100 | > 100 | > 100 | > 100 |  |  |  |  |  |  |  |  |  | 
COS(=O)c1cc(Cl)cc(Cl)c1O (stereo unspecified) |  | > 100 | > 100 | > 100 |  | > 100 | > 100 | > 100 | > 100 | > 100 |  |  |  |  |  |  |  |  | 
CCOC(=O)C(O)(NC(C)=O)C(F)(F)F (stereo unspecified) |  | > 100 | > 100 | > 100 | > 100 | > 100 | > 100 | > 100 | > 100 | > 100 |  |  |  |  |  |  |  |  | 
COc1cccc(-c2nc3sccn3c2-c2ccnc(NCCNC(=O)Nc3cccc(C(F)(F)F)c3)n2)c1 |  | 19.1 | 14 | 8.48 | 13.3 | 20.3 | 18.8 | 19.8 | 7.48 | 26.8 | 3.17 | 2.96 | 3.6 | 3.33 | 3.86 | 3.12 | 4.22 | 3.95 | 2.55
CSC1SCC2C(=O)N(C)C3(CC3C)C(=O)OCC(NC(=O)c3nc4ccccc4cc3O)C(=O)NC(C)C(=O)N(C)C1C(=O)N(C)C1(CC1C)C(=O)OCC(NC(=O)c1nc3ccccc3cc1O)C(=O)NC(C)C(=O)N2C (stereo unspecified) |  | > 100 | 4.21 | < 0.0001 | 10.3 | < 0.0001 | 0.000416 | < 0.0001 | < 0.0001 |  |  |  |  |  |  |  |  |  | 
O=C(NCCO)c1ccc(Cl)cc1 | > 100 | > 100 | > 100 | > 100 |  | > 100 | > 100 | > 100 | > 100 | > 100 |  |  |  |  |  |  |  |  | 
COc1ccc(-c2c(C#N)c(-c3ccccc3)n(NS(=O)(=O)c3ccccc3)c(=O)c2C#N)cc1 | > 100 | > 100 | > 100 | > 100 | > 100 |  | > 100 | > 100 | > 100 | > 100 |  |  |  |  |  |  |  |  | 
